# ChEMBL document CHEMBL2424559, “Design, synthesis and antitubercular evaluation of novel 2-substituted-3H-benzofuro benzofurans via palladium-copper catalysed Sonagashira coupling reaction” (Bioorg Med Chem Lett, 2013)
# Columns and labels:
# [1] = test system: Mycobacterium tuberculosis; test: microbe, parasite or virus in culture; details: H37Rv ATCC 27294, 672 h
# Description: Antimycobacterial activity against Mycobacterium tuberculosis H37Rv ATCC 27294 after 28 days by agar dilution method
# [2] = Cytotoxicity against HEK293T cells at 50 ug/ml after 72 hrs by MTT assay; assay type: cell-based, HEK-293T; details: human, read-out: INH
# [3] = Lipophilicity, log P of the compound; assay type: physicochemical; details: octanol/water
# [4] = Therapeutic index, ratio of inhibition of HEK293T cells to MIC for Mycobacterium tuberculosis H37Rv ATCC 27294; assay type: cell-based, HEK-293T; details: human, read-out: TI
smiles,measurement,setting,value
NNC(=O)c1ccncc1 [ISONIAZID],MIC,[1],0.1 µg/mL
Fc1ccc(-c2cc3c(ccc4oc5ccccc5c43)o2)c(F)c1,"cytotoxicity at 72 h, 50 ug/ml",[2],34.1%
same,MIC,[1],50 µg/mL
same,logP,[3],4.36
CC[C@@H](CO)NCCN[C@@H](CC)CO [ETHAMBUTOL],MIC,[1],3.13 µg/mL
CCCCCc1ccc(-c2cc3c(ccc4oc5ccccc5c43)o2)cc1,"cytotoxicity at 72 h, 50 ug/ml",[2],40.2%
same,MIC,[1],12.5 µg/mL
same,logP,[3],5.78
COc1ccc(-c2cc3c(ccc4oc5ccccc5c43)o2)c(C)c1,selectivity ratio,[4],> 10
same,"cytotoxicity at 72 h, 50 ug/ml",[2],32.1%
same,MIC,[1],3.12 µg/mL
same,logP,[3],4.4
NC(=O)c1cnccn1 [PYRAZINAMIDE],MIC,[1],50 µg/mL
c1ccc2c(c1)oc1ccc3oc(-c4ccsc4)cc3c12,"cytotoxicity at 72 h, 50 ug/ml",[2],23.1%
same,MIC,[1],50 µg/mL
same,logP,[3],3.97
CCCCCCc1cc2c(ccc3oc4ccccc4c32)o1,"cytotoxicity at 72 h, 50 ug/ml",[2],32.1%
same,MIC,[1],6.25 µg/mL
same,logP,[3],4.8
COc1ccc(-c2cc3c(ccc4oc5ccccc5c43)o2)cc1,"cytotoxicity at 72 h, 50 ug/ml",[2],13.8%
same,MIC,[1],50 µg/mL
same,logP,[3],3.92
c1ccc(-c2cc3c(ccc4oc5ccccc5c43)o2)cc1,"cytotoxicity at 72 h, 50 ug/ml",[2],32.1%
same,MIC,[1],6.25 µg/mL
same,logP,[3],4.04
FC(F)(F)Oc1ccc(-c2cc3c(ccc4oc5ccccc5c43)o2)cc1,"cytotoxicity at 72 h, 50 ug/ml",[2],72.1%
same,MIC,[1],50 µg/mL
same,logP,[3],5.57
Cc1ccc(-c2cc3c(ccc4oc5ccccc5c43)o2)cc1,"cytotoxicity at 72 h, 50 ug/ml",[2],21.6%
same,MIC,[1],6.25 µg/mL
same,logP,[3],4.53
Cc1cccc(-c2cc3c(ccc4oc5ccccc5c43)o2)c1,"cytotoxicity at 72 h, 50 ug/ml",[2],56.8%
same,MIC,[1],12.5 µg/mL
same,logP,[3],4.53
